The record followed here is patent US20120225061A1, “TETRASUBSTITUTED CYCLOHEXYL COMPOUNDS AS KINASE INHIBITORS” (priority 2011, published 2012).

Assay [1] addresses Pim1 kinase (Homo sapiens, UniProt P11309). The experiment in a line: Pim1 AlphaScreen assay (high ATP). A general note: Alpha assays give light when donor and acceptor beads are brought close together.
Experimental: The activity of Pim 1, Pim 2, & Pim 3 is measured using a homogeneous bead based system quantifying the amount of phosphorylated peptide substrate resulting from kinase-catalyzed phosphoryl transfer to a peptide substrate. Compounds to be tested are dissolved in 100% DMSO and directly distributed to a white 384-well plate at 0.25 μl per well. […] This is followed by the addition of 5 μl/well of Pim 1, Pim 2 or Pim 3 kinase in assay buffer (concentrations described below). Final assay concentrations (described below) are in 2.5% DMSO. The reactions are performed for ˜2 hours, then stopped by the addition of 10 μl of 0.75 μg/ml anti-phospho Ser/Thr antibody (Cell Signaling), 10 μg/ml Protein A AlphaScreen beads (Perkin Elmer), and 10 μg/ml streptavidin coated AlphaScreen beads in stop/detection buffer (50 mM EDTA, 95 mM Tris, pH=7.5, 0.01% Tween-20). The stopped reactions are incubated overnight in the dark. The phosphorylated peptide is detected via an oxygen anion initiated chemiluminescence/fluorescence cascade using the Envision plate reader (Perkin Elmer).
Assay [2] addresses Pim2 kinase (Homo sapiens, UniProt Q9P1W9). Kind of assay: Pim2 AlphaScreen assay (high ATP).
For assay [3], the system named is KMS11 (human myeloma cell line). Kind of assay: Cell proliferation assay (CellTiter-Glo) in KMS11 cells. It counts as cell-based. The note with it: KMS-11, 72 h, Table 5, 3 days, read-out: KMS11-luc EC50. The protocol: KMS11 (human myeloma cell line), were cultured in IMDM supplemented with 10% FBS, sodium pyruvate and antibiotics. Cells were plated in the same medium at a density of 2000 cells per well into 96 well tissue culture plates, with outside wells vacant, on the day of assay.
Test compounds supplied in DMSO were diluted into DMSO at 500 times the desired final concentrations before dilution into culture media to 2 times final concentrations.
After 3 days plates were equilibrated to room temperature and equal volume of CellTiter-Glow Reagent (Promega) was added to the culture wells. The plates were agitated briefly and luminescent signal was measured with luminometer.
A general note: In ATP-based viability assays light output follows the ATP content of the culture.

Assay [4] addresses Pim3 kinase (Homo sapiens, UniProt Q86V86). Kind of assay: Pim3 AlphaScreen assay (high ATP).

Sequence of Pim2 kinase (Q9P1W9 whole entry): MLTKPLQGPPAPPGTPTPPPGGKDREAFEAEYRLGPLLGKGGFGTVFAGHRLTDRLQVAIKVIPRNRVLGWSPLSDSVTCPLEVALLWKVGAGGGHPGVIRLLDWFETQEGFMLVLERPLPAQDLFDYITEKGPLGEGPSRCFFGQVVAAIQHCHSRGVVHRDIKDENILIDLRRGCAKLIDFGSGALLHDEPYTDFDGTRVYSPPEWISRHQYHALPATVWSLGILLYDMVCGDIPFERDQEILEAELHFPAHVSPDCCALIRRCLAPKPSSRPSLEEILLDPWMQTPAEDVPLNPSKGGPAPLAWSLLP
Sequence of Pim1 kinase (P11309 whole entry): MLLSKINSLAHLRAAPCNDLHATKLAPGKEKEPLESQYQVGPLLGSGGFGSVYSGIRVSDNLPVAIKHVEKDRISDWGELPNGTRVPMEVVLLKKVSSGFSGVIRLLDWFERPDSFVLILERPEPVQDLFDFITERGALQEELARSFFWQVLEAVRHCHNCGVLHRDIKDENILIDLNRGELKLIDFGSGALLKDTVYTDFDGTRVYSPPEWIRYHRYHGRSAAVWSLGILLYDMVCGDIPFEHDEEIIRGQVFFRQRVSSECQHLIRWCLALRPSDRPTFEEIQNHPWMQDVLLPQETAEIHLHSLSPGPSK

As usually defined, the IC50 is the concentration that gives 50% inhibition. The low end stands for inhibition by little substance, the high end for a need for much substance. The term EC50 denotes the concentration at which the effect is half-maximal. As to `C[C@H]1C[C@@H](c2ccncc2NC(=O)c2ccc(F)c(-c3c(F)cc(OCC(F)(F)F)cc3F)n2)C[C@@H](N)[C@]1(C)O` [Example 118, N-(4-((1R,3R,4R,5S)-3-amino-4-hydroxy-4,5-dimethylcyclohexyl)pyridin-3-yl)-6-(2,6-difluoro-4-(2,2,2-trifluoroethoxy)phenyl)-5-fluoropicolinamide], the IC50 stood at 0.07 nM in assay [1], 3.57 nM in assay [2] and 1.61 nM in assay [4]. Moreover, the EC50 in assay [3] amounted to 539 nM.

For the compound `C[C@H]1C[C@@H](c2ccncc2NC(=O)c2nc(-c3c(F)cccc3F)ccc2N)C[C@@H](O)[C@@]1(O)CF` [Example 18, 3-amino-6-(2,6-difluorophenyl)-N-(4-((1R,3R,4R,5S)-4-(fluoromethyl)-3,4-dihydroxy-5-methylcyclohexyl)pyridin-3-yl) picolinamide], the IC50 was found to be 0.67 nM in assay [1], 47 nM in assay [2] and 10.2 nM in assay [4]. In addition, the EC50 in assay [3] turned out to be 714 nM.

Take `C[C@H]1C[C@@H](c2ccncc2NC(=O)c2ccc(F)c(-c3c(F)cc(C4(O)COC4)cc3F)n2)C[C@@H](O)[C@]1(C)O` [Example 76]: the IC50 in assay [1] was 0.82 nM; in assay [2] it was 264 nM; in assay [4] it was 117 nM. Moreover, the EC50 in assay [3] amounted to 1140 nM.

Take `C[C@H]1C[C@@H](c2ccncc2NC(=O)c2ccc(F)c(-c3c(F)cc(C4(O)CCCC4)cc3F)n2)C[C@@H](O)[C@]1(C)O` [Example 80, 6-(2,6-difluoro-4-(1-hydroxycyclopentyl)phenyl)-N-(4-((1R,3R,4R,5S)-3,4-dihydroxy-4,5-dimethylcyclohexyl)pyridin-3-yl)-5-fluoropicolinamide]: the IC50 in assay [1] is 0.15 nM; in assay [2], 126 nM; in assay [4], 55 nM. The EC50 in assay [3] was determined as 169 nM.

In the case of `Cc1cc(F)c(-c2nc(C(=O)Nc3cnccc3[C@H]3C[C@@H](C)[C@](C)(O)[C@@H](N)C3)ccc2F)c(F)c1` [Example 14, N-(4-((1S,3S,4S,5R)-3-amino-4-hydroxy-4,5-dimethyl-cyclohexyl)pyridin-3-yl)-6-(2,6-difluoro-4-methylphenyl)-5-fluoropicolinamide], the IC50 in assay [1] amounted to 13.7 nM; in assay [2] it was 776 nM; in assay [4], 231 nM. Moreover, the EC50 in assay [3] was determined as 5040 nM.

On to `C[C@H]1C[C@@H](c2ccncc2NC(=O)c2ccc(F)c(-c3c(F)cc(C(F)F)cc3F)n2)C[C@@H](N)[C@]1(C)O` [Example 104, N-(4-((1R,3R,4R,5S)-3-amino-4-hydroxy-4,5-dimethylcyclohexyl)pyridin-3-yl)-6-(4-(difluoromethyl)-2,6-difluorophenyl)-5-fluoropicolinamide], for which the IC50 stood at 0.07 nM in assay [1], 7.56 nM in assay [2] and 4.37 nM in assay [4]. Besides, in assay [3], the half-maximal effective concentration (EC50) was 823 nM.

With `COCCOc1cc(F)c(-c2nc(C(=O)Nc3cnccc3[C@H]3C[C@@H](O)[C@](C)(O)[C@@H](C)C3)ccc2F)c(F)c1` [Example 107, 6-(2,6-difluoro-4-(2-methoxyethoxy)phenyl)-N-(4-((1R,3R,4R,5S)-3,4-dihydroxy-4,5-dimethylcyclohexyl)pyridin-3-yl)-5-fluoropicolinamide], the IC50 in assay [1] was determined as 0.89 nM; in assay [2], 253 nM; in assay [4], 74.2 nM. Also, in assay [3], the half-maximal effective concentration (EC50) was found to be 3180 nM.

With `CC1C[C@@H](c2ccncc2NC(=O)c2ccc(F)c(-c3c(F)cc(Oc4ccncc4)cc3F)n2)C[C@@H](O)[C@]1(C)O` (stereo in doubt) [Example 116, 6-(2,6-difluoro-4-(pyridin-4-yloxy)phenyl)-N-(4-((1R,3R,4R,5S)-3,4-dihydroxy-4,5-dimethylcyclohexyl)pyridin-3-yl)-5-fluoropicolinamide], the IC50 was found to be 2.65 nM in assay [1], 672 nM in assay [2] and 189 nM in assay [4]. The EC50 in assay [3] is greater than 10000 nM.

Consider `C[C@H]1C[C@@H](c2ccncc2NC(=O)c2ccc(F)c(-c3c(F)cc(OC4CCNCC4)cc3F)n2)C[C@@H](O)[C@]1(C)O` [Example 112, 6-(2,6-difluoro-4-(piperidin-4-yloxy)phenyl)-N-(4-((1R,3R,4R,5S)-3,4-dihydroxy-4,5-dimethylcyclohexyl)pyridin-3-yl)-5-fluoropicolinamide], for which the IC50 in assay [1] was found to be 0.11 nM; in assay [2], 56.5 nM; in assay [4], 18.3 nM. Also, in assay [3], the EC50 came out at 4150 nM.

Consider `COCCOc1ccc(F)c(-c2nc(C(=O)Nc3cnccc3[C@H]3C[C@@H](N)[C@](C)(O)[C@@H](C)C3)ccc2F)c1F` [Example 6, N-(4-((1R,3R,4R,5S)-3-amino-4-hydroxy-4,5-dimethylcyclohexyl)pyridin-3-yl)-6-(2,6-difluoro-3-(2-methoxyethoxy)phenyl)-5-fluoropicolinamide], for which the IC50 in assay [1] is 0.14 nM; in assay [2], 24.9 nM; in assay [4], 2.4 nM. For the same compound, the EC50 in assay [3] worked out at 202 nM.

Consider `CSc1cc(F)c(-c2nc(C(=O)Nc3cnccc3[C@H]3C[C@@H](N)[C@](C)(O)[C@@H](C)C3)ccc2F)c(F)c1` [Example 8, N-(4-((1R,3R,4R,5S)-3-amino-4-hydroxy-4,5-dimethylcyclohexyl)pyridin-3-yl)-6-(2,6-difluoro-4-(methylthio)phenyl)-5-fluoropicolinamide], for which the IC50 in assay [1] worked out at 0.08 nM; in assay [2] it was 6.98 nM; in assay [4] it was 2.04 nM. The 50% effective concentration (EC50) in assay [3] was 234 nM.

As to `C[C@@H]1C[C@H](c2ccncc2NC(=O)c2ccc(F)c(-c3c(F)cc(C4(O)COC4)cc3F)n2)C[C@H](O)[C@@]1(C)O` [Example 75], the IC50 is 39.1 nM in assay [1], 8640 nM in assay [2] and 5900 nM in assay [4]. For the same compound, the EC50 in assay [3] came to 5780 nM.

Consider `C[C@H]1C[C@@H](c2ccncc2NC(=O)c2ccc(F)c(-c3c(F)cc(O[C@H]4CCCOC4)cc3F)n2)C[C@@H](N)[C@]1(C)O` [Example 89, N-(4-((1R,3R,4R,5S)-3-amino-4-hydroxy-4,5-dimethylcyclohexyl)pyridin-3-yl)-6-(2,6-difluoro-4-((S)-tetrahydro-2H-pyran-3-yloxy)phenyl)-5-fluoropicolinamide], for which the IC50 was 0.02 nM in assay [1], 1.47 nM in assay [2] and 0.35 nM in assay [4]. Moreover, the concentration for a half-maximal effect (EC50) in assay [3] was determined as 22 nM.

With `C[C@H]1C[C@@H](c2ccncc2NC(=O)c2ccc(F)c(-c3c(F)cc(C(C)(C)O)cc3F)n2)C[C@@H](O)[C@]1(C)O` [Example 73, 6-(2,6-difluoro-4-(2-hydroxypropan-2-yl)phenyl)-N-(4-((1R,3R,4R,5S)-3,4-dihydroxy-4,5-dimethylcyclohexyl)pyridin-3-yl)-5-fluoropicolinamide], the IC50 in assay [1] came to 0.42 nM; in assay [2], 156 nM; in assay [4] it was 63.1 nM. Further, in assay [3], the EC50 turned out to be 189 nM.

Regarding `C[C@H]1C[C@@H](c2ccncc2NC(=O)c2ccc(F)c(-c3c(F)cc(N4CCOCC4)cc3F)n2)C[C@@H](N)[C@]1(C)O` [Example 87, N-(4-((1R,3R,4R,5S)-3-amino-4-hydroxy-4,5-dimethylcyclohexyl)pyridin-3-yl)-6-(2,6-difluoro-4-morpholinophenyl)-5-fluoropicolinamide], the results for the IC50 in assay [1], in assay [2] and in assay [4] were 0.01 nM, 1.91 nM and 0.41 nM, respectively. Moreover, the concentration giving a half-maximal response (EC50) in assay [3] is 57 nM.

With `Cc1noc(C)c1-c1cc(F)c(-c2nc(C(=O)Nc3cnccc3[C@H]3C[C@@H](N)[C@](C)(O)[C@@H](C)C3)ccc2F)c(F)c1` [Example 94, N-(4-((1R,3R,4R,5S)-3-amino-4-hydroxy-4,5-dimethylcyclohexyl)pyridin-3-yl)-6-(4-(3,5-dimethylisoxazol-4-yl)-2,6-difluorophenyl)-5-fluoropicolinamide], the concentration for half-maximal inhibition (IC50) in assay [1] worked out at 0.3 nM; in assay [2] it was 114 nM; in assay [4], 47.8 nM. Also, the EC50 in assay [3] came out at 3230 nM.

Consider `C[C@@H]1C[C@H](c2ccncc2NC(=O)c2ccc(F)c(-c3c(F)cc(C(C)(C)O)cc3F)n2)C[C@H](O)[C@@]1(C)O` [Example 74, 6-(2,6-difluoro-4-(2-hydroxypropan-2-yl)phenyl)-N-(4-((1S,3S,4S,5R)-3,4-dihydroxy-4,5-dimethylcyclohexyl)pyridin-3-yl)-5-fluoropicolinamide], for which the IC50 in assay [1] came out at 18.8 nM; in assay [2] it was 6340 nM; in assay [4] it was 2870 nM. Moreover, the EC50 in assay [3] is 3470 nM.

As for `C[C@H]1C[C@@H](c2ccncc2NC(=O)c2ccc(F)c(-c3c(F)cc(OCCO)cc3F)n2)C[C@@H](O)[C@]1(C)O` [Example 111, 6-(2,6-difluoro-4-(2-hydroxyethoxy)phenyl)-N-(4-((1R,3R,4R,5S)-3,4-dihydroxy-4,5-dimethylcyclohexyl)pyridin-3-yl)-5-fluoropicolinamide], the 50% inhibitory concentration (IC50) in assay [1] came to 0.83 nM; in assay [2] it was 173 nM; in assay [4], 38.7 nM. In addition, in assay [3], the EC50 worked out at 538 nM.

For `COCCOc1cc(F)c(-c2nc(C(=O)Nc3cnccc3[C@H]3C[C@@H](O)[C@](C)(O)[C@@H](C)C3)c(N)cc2F)c(F)c1` [Example 98, 3-amino-6-(2,6-difluoro-4-(2-methoxyethoxy)phenyl)-N-(4-((1R,3R,4R,5S)-3,4-dihydroxy-4,5-dimethylcyclohexyl)pyridin-3-yl)-5-fluoropicolinamide], the values for the IC50 in assay [1], in assay [2] and in assay [4] were 0.83 nM, 133 nM and 40.2 nM, respectively. Moreover, in assay [3], the EC50 was determined as 427 nM.
